Measurements published in patent US8835657B2, “Cyclopentanedione compounds and their use as insecticides, acaricides and/or fungicides” (Bayer CropScience AG, priority 2009, dated 2014).
Where two headings read alike, the source gives them in different places.

Experiments:
Type in all cases: in vivo
[1] = tested on: green peach aphid (Myzus persicae); assay: Myzus persicae test (MYZUPE spray application); conditions: foliar, 144 h, spray on Chinese cabbage leaf disks, after 6 days, read-out: Efficacy % (mortality)
Protocol: Test; (MYZUPE Spray Application)
(§1) • Solvent: 78.0 parts by weight acetone • 1.5 parts by weight dimethylformamide • Emulsifier: 0.5 parts by weight alkylarylpolyglycolether
(§2) To produce a suitable preparation of active compound, 1 part by weight of active compound is mixed with the stated amount of solvent and emulsifier, and the concentrate is diluted with emulsifier-containing water to the desired concentration. Chinese cabbage (Brassica pekinesis) leaf-disks infected with all instars of the green peach aphid (Myzus persicae), are sprayed with a preparation of the active ingredient at the desired concentration.
After 6 days mortality in % is determined. 100% means that all aphids have been killed; 0% means that none of the aphids have been killed.

[2] = tested on: two spotted spidermite (Tetranychus urticae); assay: Tetranychus urticae test; OP-resistant (TETRUR spray application); conditions: 144 h, read-out: Efficacy % (mortality)
Protocol: Test; OP-Resistant (TETRUR Spray Application)
as §1
as §2, with “French beans (Phaseolus vulgaris) which are heavily infested” for “Chinese cabbage (Brassica pekinesis) leaf-disks infected”, “stages” for “instars”, “two spotted spidermite (Tetranychus urticae),” for “green peach aphid (Myzus persicae),”
After 6 days mortality in % is determined. 100% means that all spider mites have been killed and 0% means that none of the spider mites have been killed.

[3] = tested on: mustard beetle larvae (Phaedon cochleariae); assay: Phaedon cochleariae test (PHAECO spray application); conditions: foliar, 168 h, spray on Chinese cabbage leaf disks, after 7 days, read-out: Efficacy % (mortality)
Protocol: Test; (PHAECO Spray Application)
• Solvent: 78.0 parts by weight of acetone • 1.5 parts by weight of dimethylformamide • Emulsifier: 0.5 parts by weight of alkylaryl polyglycolether
To produce a suitable preparation of active compound, 1 part by weight of active compound is mixed with the stated amount of solvent and emulsifier, and the concentrate is diluted with emulsifier-containing water to the desired concentration. Chinese cabbage (Brassica pekinesis) leaf-disks are sprayed with a preparation of the active ingredient of the desired concentration. Once dry, the leaf disks are infested with mustard beetle larvae (Phaedon cochleariae).
After 7 days mortality in % is determined. 100% means that all beetle larvae have been killed and 0% means that none of the beetle larvae have been killed.

[4] = tested on: fall armyworm larvae (Spodoptera frugiperda); assay: Spodoptera frugiperda test (SPODFR spray application); conditions: 168 h, spray on maize leaf sections, after 7 days, read-out: Efficacy % (mortality)
Text: Test (SPODFR Spray Application)
as §1
To produce a suitable preparation of the active compound, 1 part by weight of active compound is mixed with the stated amount of solvent and emulsifier, and the concentrate is dilutes with emulsifier-containing water to the desired concentration. Maize (Zea mais) leaf sections are sprayed with a preparation of the active ingredient of the desired concentration. Once dry, the leaf sections are infested with fall armyworm larvae (Spodoptera frugiperda).
After 7 days mortality in % is determined. 100% means that all caterpillars have been killed and 0% means that none of the caterpillars have been killed.

Meloidogyne incognita = assay: Meloidogyne test (MELGIN); conditions: 20 ppm, sand with salad seeds, after 14 days
Protocol: Meloidogyne Test (MELGIN)
• Solvent: 80.0 parts by weight of acetone
To produce a suitable preparation of active compound, 1 part by weight of active compound is mixed with the stated amount of solvent, and the concentrate is diluted with emulsifier-containing water to the desired concentration.
Vessels are filled with sand, a solution of the active ingredient, a suspension containing eggs and larvae of Meloidogyne incognita and salad seeds. The salade seeds germinate and the seedlings grow. Galls develop in the roots.
After 14 days the nematicidal activity is determined on the basis of the percentage of gall formation. 100% means that no galls were found; 0% means that the number of galls found on the roots of the treated plants was equal to that in untreated control plants.

| Compound | mortality at 500 g/ha [1] [%] | mortality at 500 g/ha [2] [%] | mortality at 500 g/ha ([3]; 500 g/ha) [%] | mortality at 500 g/ha [4] [%] | mortality at 500 g/ha ([2]; TETRUR, OP-resistant, 500 g/ha, spray on French beans, after 6 days) [%] | mortality at 100 g/ha ([3]; 100 g/ha) [%] | Efficacy % (nematicidal activity, gall formation) (Meloidogyne incognita) [%] |
| --- | --- | --- | --- | --- | --- | --- | --- |
| CCOC(=O)OC1=C(c2cc(-c3ccc(Cl)cc3)ccc2C)C(=O)C2C3CCC(O3)C12 (stereo not drawn) [Ex No. P 12] | 90 | 100 | 83 | 100 |  |  |  |
| Cc1ccc(-c2ccc(Cl)cc2)cc1C1=C(O)[C@H]2[C@@H](C1=O)[C@@H]1CC[C@H]2O1 [Ex No. T 1] | 90 |  |  | 100 | 100 | 83 | 100 |
